Experimental data as given in ChEMBL document CHEMBL1641547, “Biologically active constituents from the fruiting body of Taiwanofungus camphoratus” (Bioorg Med Chem, 2011).
In brackets after ≈: the same amount, converted by molar mass.

Columns and labels:
MCF7 = assay: Cytotoxicity against human MCF7 cells after 3 days by MTT assay; format: functional; conditions: MCF7, 72 h, read-out: ED50 (the source's name)
HeLa = assay: Cytotoxicity against human HeLa cells after 3 days by MTT assay; format: functional; conditions: 72 h, read-out: ED50 (the source's name)
[1] = Inhibition of NOX in fMLP-induced PMN cells assessed as ROS production
Daoy = assay: Cytotoxicity against human DaOY cells after 3 days by MTT assay; format: functional; conditions: 72 h, read-out: ED50 (the source's name)
HEp-2 = assay: Cytotoxicity against human Hep2 cells after 3 days by MTT assay; format: functional; conditions: HEp-2, 72 h, read-out: ED50 (the source's name)
[2] = target: T1, Nitric oxide synthase, inducible (Mus musculus, UniProt P29477); assay: Inhibition of iNOS in mouse BV2 microglial cells assessed as NO production; format: cell-based
T1 sequence (P29477 whole entry): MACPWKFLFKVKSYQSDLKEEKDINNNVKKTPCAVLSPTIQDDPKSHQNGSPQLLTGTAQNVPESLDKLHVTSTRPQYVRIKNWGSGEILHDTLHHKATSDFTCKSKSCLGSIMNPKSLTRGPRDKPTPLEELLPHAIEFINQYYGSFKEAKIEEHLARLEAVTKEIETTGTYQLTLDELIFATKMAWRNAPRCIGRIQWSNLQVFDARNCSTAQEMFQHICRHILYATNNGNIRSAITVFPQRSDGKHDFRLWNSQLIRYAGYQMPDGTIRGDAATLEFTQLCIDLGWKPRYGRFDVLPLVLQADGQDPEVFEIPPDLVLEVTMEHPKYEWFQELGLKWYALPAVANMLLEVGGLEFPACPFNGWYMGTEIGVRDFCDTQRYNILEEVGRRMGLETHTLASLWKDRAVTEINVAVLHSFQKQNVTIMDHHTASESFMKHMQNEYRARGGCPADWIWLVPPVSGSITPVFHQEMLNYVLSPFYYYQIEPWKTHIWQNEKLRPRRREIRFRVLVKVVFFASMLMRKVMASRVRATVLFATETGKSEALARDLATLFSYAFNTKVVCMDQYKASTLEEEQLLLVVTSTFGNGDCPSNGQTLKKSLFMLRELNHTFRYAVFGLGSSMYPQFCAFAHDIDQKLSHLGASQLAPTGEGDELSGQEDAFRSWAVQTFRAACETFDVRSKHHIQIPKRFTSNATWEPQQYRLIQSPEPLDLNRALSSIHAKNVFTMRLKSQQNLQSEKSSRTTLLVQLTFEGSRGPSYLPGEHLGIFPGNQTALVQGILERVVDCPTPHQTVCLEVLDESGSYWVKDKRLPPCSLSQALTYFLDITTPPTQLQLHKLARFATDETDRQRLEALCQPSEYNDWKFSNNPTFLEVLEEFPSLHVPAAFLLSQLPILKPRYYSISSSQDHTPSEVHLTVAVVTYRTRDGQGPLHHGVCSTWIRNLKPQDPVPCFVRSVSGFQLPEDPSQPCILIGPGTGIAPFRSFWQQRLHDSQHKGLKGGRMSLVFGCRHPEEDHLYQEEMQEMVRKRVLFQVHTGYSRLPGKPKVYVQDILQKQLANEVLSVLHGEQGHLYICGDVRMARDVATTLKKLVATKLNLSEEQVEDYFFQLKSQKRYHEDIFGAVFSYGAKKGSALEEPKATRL

[3] = Inhibition of mouse NOX activity in NADPH-induced mouse BV2 microglial cells assessed as ROS production; conditions: BV-2

Structure (SMILES) | EC50 (MCF7) | EC50 (HeLa) | IC50 [1] | EC50 (Daoy) | EC50 (HEp-2) | IC50 [2] | IC50 [3]
COc1cc(C)c(OC)c2c1OCO2 | > 20 µg/mL | > 20 µg/mL | 19.9 µM | > 20 µg/mL | > 20 µg/mL | – | –
COc1c(C)c(-c2c(C)c(OC)c3c(c2OC)OCO3)c(OC)c2c1OCO2 | > 20 µg/mL | > 20 µg/mL | 15.5 µM | > 20 µg/mL | > 20 µg/mL | – | –
OC1O[C@@H](c2ccc3c(c2)OCO3)[C@@H]2CO[C@@H](c3ccc4c(c3)OCO4)[C@H]12 (stereo not given in full) [4-HYDROXYSESAMIN] | > 20 µg/mL | > 20 µg/mL | – | > 20 µg/mL | > 20 µg/mL | – | –
C=C(CC[C@@H](C)[C@H]1CC[C@H]2C3=C(C(=O)C[C@]12C)[C@@]1(C)CCC(=O)[C@@H](C)[C@@H]1CC3)C(C)C(=O)O (stereo not given in full) [ANTCIN A] | 13.3 µg/mL (≈ 29.3 µM) | > 20 µg/mL | 29.2 µM | 13.2 µg/mL (≈ 29 µM) | > 20 µg/mL | 4.1 µM | –
C=C(CC[C@@H](C)[C@H]1CC[C@H]2C3=C(C(=O)C[C@]12C)[C@@]1(C)CC[C@@H](O)[C@](C)(O)[C@@H]1C[C@@H]3O)C(C)C(=O)O (stereo not given in full) [ANTCIN K] | > 20 µg/mL | > 20 µg/mL | 47.2 µM | > 20 µg/mL | > 20 µg/mL | – | –
C=C(C)C#Cc1c(OC)cc(OC)c(OC)c1C [ANTROCAMPHIN A] | 3.4 µg/mL (≈ 13.8 µM) | 6.9 µg/mL (≈ 28 µM) | 15.1 µM | 5.9 µg/mL (≈ 24 µM) | 10.5 µg/mL (≈ 42.6 µM) | 7.2 µM | 50.1 µM
C=C(C)C#Cc1c(C)c(OC)c(OC)c2c1OCO2 [BENZOCAMPHORIN B] | – | – | 14.4 µM | – | – | – | –
C=C(CC[C@@H](C)[C@H]1CC[C@H]2C3=C(C(=O)C[C@]12C)[C@@]1(C)CC[C@@H](O)[C@@H](C)[C@@H]1C[C@@H]3O)C(C)C(=O)O (stereo not given in full) [CAMPHORATIN B] | – | – | 32.1 µM | – | – | 15.7 µM | –
C=C(CC[C@@H](C)[C@H]1CC[C@H]2C3=C(C(=O)C[C@]12C)[C@@]1(C)CCC(=O)[C@@H](C)[C@@H]1C[C@@H]3O)C(C)C(=O)O (stereo not given in full) [CAMPHORATIN D] | > 20 µg/mL | > 20 µg/mL | 22.6 µM | > 20 µg/mL | > 20 µg/mL | 4.2 µM | –
C=C(CC[C@@H](C)[C@H]1CC[C@H]2C3=C(C(=O)C[C@]12C)[C@@]1(C)CC[C@@H](O)[C@@H](C)[C@@H]1CC3=O)C(C)C(=O)OC (stereo not given in full) [CAMPHORATIN E] | 6.6 µg/mL (≈ 13.6 µM) | 9 µg/mL (≈ 18.6 µM) | – | 5.2 µg/mL (≈ 10.7 µM) | 7 µg/mL (≈ 14.4 µM) | – | –
C=C(CC[C@@H](C)[C@H]1CC[C@H]2C3=C(C(=O)C[C@]12C)[C@@]1(C)CCC(=O)[C@@H](C)[C@@H]1C[C@@H]3O)C(C)C(=O)OC (stereo not given in full) [CAMPHORATIN F] | 7.9 µg/mL (≈ 16.3 µM) | 8.9 µg/mL (≈ 18.4 µM) | 11.2 µM | 4.4 µg/mL (≈ 9.08 µM) | 3 µg/mL (≈ 6.19 µM) | 2.5 µM | –
C[C@H](/C=C/[C@H](C)[C@H](C)CO)[C@H]1CC[C@H]2C3=CC[C@H]4CC(=O)CC[C@]4(C)[C@H]3CC[C@]12C [CAMPHORATIN I] | – | – | 17.5 µM | – | – | 12.7 µM | –
C=C(CC[C@@H](C)[C@H]1CC[C@@H]2C3=C(C(=O)C[C@@]21C)[C@@]1(C)CCC(=O)[C@@H](C)[C@@H]1CC3)C(C)C(=O)OC (stereo not given in full) [CAMPHORATIN J] | 8.7 µg/mL (≈ 18.6 µM) | 11.3 µg/mL (≈ 24.1 µM) | 15.8 µM | > 20 µg/mL | > 20 µg/mL | 1.6 µM | –
CC(C)[C@@H](C)/C=C/[C@@H](C)[C@H]1CC[C@@H]2[C@]1(C)CC[C@H]1[C@]23C=C[C@]2(C[C@@H](O)CC[C@]12C)OO3 [ERGOSTEROL PEROXIDE] | – | – | 20.3 µM | – | – | – | –
CC(C)[C@@H](C)/C=C/[C@@H](C)[C@H]1CC[C@H]2C3=CC=C4C[C@@H](O)CC[C@]4(C)[C@H]3CC[C@]12C [ERGOSTEROL] | – | – | 27.9 µM | – | – | 30.6 µM | –
C=C(CC[C@@H](C)[C@H]1CC[C@H]2C3=C(C[C@H](O)[C@]12C)[C@@]1(C)CC[C@@H](O)[C@@H](C)[C@@H]1CC3=O)C(C)C(=O)OC (stereo not given in full) [METHYL ANTCINATE H] | > 20 µg/mL | > 20 µg/mL | 18.1 µM | > 20 µg/mL | > 20 µg/mL | 2.5 µM | –
C=C(CC[C@@H](C)[C@H]1CC[C@H]2C3=C(C(=O)C[C@]12C)[C@@]1(C)CCC(=O)[C@@H](C)[C@@H]1CC3)C(C)C(=O)OC (stereo not given in full) [METHYLANTCINATE A] | > 20 µg/mL | > 20 µg/mL | 16.2 µM | > 20 µg/mL | > 20 µg/mL | 1.5 µM | –
c1cc2c(cc1[C@H]1OC[C@H]3[C@@H]1CO[C@@H]3c1ccc3c(c1)OCO3)OCO2 [SESAMIN] | > 20 µg/mL | > 20 µg/mL | – | > 20 µg/mL | > 20 µg/mL | – | –
C=C(CC[C@@H](C)[C@H]1CC[C@H]2C3=C(C(=O)C[C@]12C)[C@@]1(C)CCC(=O)[C@@H](C)[C@@H]1CC3=O)C(C)C(=O)OC (stereo not given in full) [ZHANKUIC ACID A METHYL ESTER] | > 20 µg/mL | > 20 µg/mL | 8.4 µM | > 20 µg/mL | > 20 µg/mL | 0.6 µM | –
C=C(CC[C@@H](C)[C@H]1CC[C@H]2C3=C(C(=O)C[C@]12C)[C@@]1(C)CCC(=O)[C@@H](C)[C@@H]1CC3=O)C(C)C(=O)O (stereo not given in full) [ZHANKUIC ACID A] | > 20 µg/mL | > 20 µg/mL | 22.1 µM | > 20 µg/mL | 16.6 µg/mL (≈ 35.4 µM) | 3.6 µM | –
C=C(CC[C@@H](C)[C@H]1CC[C@H]2C3=C(C(=O)C[C@]12C)[C@@]1(C)CC[C@@H](O)[C@@H](C)[C@@H]1CC3=O)C(C)C(=O)O (stereo not given in full) [ZHANKUIC ACID B] | > 20 µg/mL | > 20 µg/mL | – | > 20 µg/mL | > 20 µg/mL | 9.6 µM | –
C=C(CC[C@@H](C)[C@H]1CC[C@H]2C3=C(C(=O)[C@H](O)[C@]12C)[C@@]1(C)CC[C@@H](O)[C@@H](C)[C@@H]1CC3=O)C(C)C(=O)O (stereo not given in full) [ZHANKUIC ACID C] | > 20 µg/mL | > 20 µg/mL | – | > 20 µg/mL | > 20 µg/mL | 16.2 µM | –
